Results on 7 compounds are retold here after patent US20260317319A1, “NOVEL ERGOLINES AND METHODS OF TREATING MOOD DISORDERS” (Gilgamesh Pharma Inc., priority 2023, published 2026).

By EC50 is commonly meant the midpoint of the concentration-response curve. The Ki is the equilibrium dissociation constant of an inhibitor or competing ligand from its target. High values mean a looser hold on the target, low ones a stronger hold on the target.

Read-outs that look alike come from different tables or passages of the source.

One series addresses T1, 5-HT2B receptor (Homo sapiens, UniProt P41595).
T1 construct: expressed in transfected cells; host or cells: HEK293, stably transfected
In words: cell-based. The format is cell-based. The note with it: Ca2+ flux; for Emax: HEK293, agonist, HEK293, max dose, read-out: 5-HT2B % Act @ Max Dose; for EC50: agonist, HEK293. Put shortly:
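FLIPR Tetra fluorescence read-out of calcium flux after compound addition. Receptor-expressing stable lines were used (HEK293 for 2A/2B; CHO with Gα15 for 1A), dye-loaded with Fluo-4 Direct and 2.5 mM final probenecid, 50 min at 37 °C.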
For orientation: A change in cytosolic calcium serves as a functional read-out for many receptors and channels.

Another series concerns the target T2, 5-HT1A receptor (Homo sapiens, UniProt P08908).
T2 construct: expressed in transfected cells; host or cells: CHO cells, stably transfected
T2 sequence (P08908 1-422): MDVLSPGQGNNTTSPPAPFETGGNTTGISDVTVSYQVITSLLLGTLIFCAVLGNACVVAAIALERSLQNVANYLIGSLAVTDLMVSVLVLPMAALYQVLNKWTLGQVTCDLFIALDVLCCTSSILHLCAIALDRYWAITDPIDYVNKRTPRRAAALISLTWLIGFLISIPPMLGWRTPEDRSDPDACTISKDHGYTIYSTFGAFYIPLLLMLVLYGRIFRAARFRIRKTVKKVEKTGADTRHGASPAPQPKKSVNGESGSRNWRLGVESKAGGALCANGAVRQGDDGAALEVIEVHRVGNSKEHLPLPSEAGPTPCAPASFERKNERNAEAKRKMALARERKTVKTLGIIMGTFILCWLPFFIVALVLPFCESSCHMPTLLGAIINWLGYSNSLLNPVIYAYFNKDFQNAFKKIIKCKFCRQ
Description: cell-based. The note with it: agonist, Ca2+ flux; for Emax: CHO, CHO cells with Gα15, max dose, read-out: 5-HT1A % Act @ Max Dose; for EC50: CHO cells with Gα15. Put shortly:
(§1)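 Receptor agonism was assessed as intracellular calcium mobilization in stably transfected cells, with CHO cells additionally carrying Gα15 for the 5-HT1A readout. Calcium was monitored with Fluo-4 Direct dye.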

The next series concerns the target T3, 5-HT1B receptor (Homo sapiens, UniProt P28222).
T3 construct: expressed in transfected cells
Description: cAMP accumulation functional assay at 5-HT1B. In kind it is cell-based. The note with it: agonist, cAMP accumulation; for Emax: max dose, read-out: 5-HT1B % Act @ Max Dose. The method in brief: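 Agonist activity measured as cAMP accumulation in cells stably transfected with human 5-HT1B. Cells incubated 60 min at RT, then detection reagent added for a further 60 min at RT before plate reading.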

A short description of series [1]: in vitro. In kind it is in vitro ADME, human. The note with it: human, microsomes, HLM 0.50 mg/mL, NADPH 1 mM, 1 μM compound, pH 7.4, 37° C., 60 min; for microsomal CLint: read-out: Intrinsic clearance (Clint); for half-life: read-out: half-life (t1/2).
The nature of series [2]: in vitro. The note with it: mouse, microsomes, MLM (male CD-1) 0.50 mg/mL, NADPH 1 mM, 1 μM compound, pH 7.4, 37° C., 60 min; for microsomal CLint: read-out: Intrinsic clearance (Clint); for half-life: read-out: half-life (t1/2). In kind it is in vitro ADME, mouse. The source says:
MLM Stability Pooled MLM from male CD-1 mice (BIOIVT M00501) were used.

A short description of series [3]: in vitro. In kind it is in vitro ADME, rat. The conditions noted are these: rat, microsomes, RLM (male Sprague-Dawley) 0.50 mg/mL, NADPH 1 mM, 1 μM compound, pH 7.4, 37° C., 60 min; for microsomal CLint: read-out: Intrinsic clearance (Clint); for half-life: read-out: half-life (t1/2). From the text: RLM Stability Pooled RLM from male Sprague-Dawley rats (Xenotech R1000) were used.

In series [4] the target is T4, 5-HT2A receptor (Homo sapiens, UniProt P28223). Description: biochemical. In kind it is binding. Set-up: expressed in transfected cells; host or cells: HEK293, stably transfected. The note with it: [3H]ketanserin 1 nM; HEK293 stable cell line; 1 h, 25 °C. The method in brief:
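Binding affinity comes from a [^3H]ketanserin radioligand assay run under literature-adapted conditions.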

Series [5] concerns the target T4, 5-HT2A receptor. Description: cell-based. The format is cell-based. Set-up: expressed in transfected cells; host or cells: HEK293, stably transfected. The conditions noted are these: Ca2+ flux; for Emax: HEK293, agonist, HEK293, max dose, read-out: 5-HT2A % Act @ Max Dose; for EC50: agonist, HEK293. The method in brief: as §1
The target in series [6] is T4, 5-HT2A receptor. Description: cell-based. In kind it is cell-based. The conditions noted are these: agonist, beta-arrestin recruitment; for EC50: PathHunter, read-out: 5-HT2A Arrestin EC50; for Emax: max dose, read-out: 5-HT2A Arrestin % Act @ Max Dose. The method in brief: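 PathHunter β-arrestin recruitment (enzyme fragment complementation): 5-HT2A fused to ProLink donor in cells co-expressing β-arrestin–β-galactosidase acceptor, seeded and held at 37° C before testing. Chemiluminescent read-out; agonist % activity = (sample RLU − vehicle)/(max control ligand − vehicle) × 100.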

T1 sequence (P41595 whole entry): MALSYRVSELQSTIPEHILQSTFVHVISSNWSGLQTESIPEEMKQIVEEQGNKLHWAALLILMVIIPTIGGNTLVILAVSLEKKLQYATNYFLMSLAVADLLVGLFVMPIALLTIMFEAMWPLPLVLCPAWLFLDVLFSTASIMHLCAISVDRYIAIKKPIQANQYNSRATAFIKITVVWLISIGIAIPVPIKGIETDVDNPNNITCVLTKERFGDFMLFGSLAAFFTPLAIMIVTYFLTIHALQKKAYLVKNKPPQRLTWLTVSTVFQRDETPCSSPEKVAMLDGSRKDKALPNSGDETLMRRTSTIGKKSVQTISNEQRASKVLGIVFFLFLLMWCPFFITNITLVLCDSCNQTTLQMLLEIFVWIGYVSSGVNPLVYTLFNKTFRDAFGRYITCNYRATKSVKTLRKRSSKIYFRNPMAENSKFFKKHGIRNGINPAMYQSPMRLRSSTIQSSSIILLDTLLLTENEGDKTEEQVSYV
T4 sequence (P28223 whole entry): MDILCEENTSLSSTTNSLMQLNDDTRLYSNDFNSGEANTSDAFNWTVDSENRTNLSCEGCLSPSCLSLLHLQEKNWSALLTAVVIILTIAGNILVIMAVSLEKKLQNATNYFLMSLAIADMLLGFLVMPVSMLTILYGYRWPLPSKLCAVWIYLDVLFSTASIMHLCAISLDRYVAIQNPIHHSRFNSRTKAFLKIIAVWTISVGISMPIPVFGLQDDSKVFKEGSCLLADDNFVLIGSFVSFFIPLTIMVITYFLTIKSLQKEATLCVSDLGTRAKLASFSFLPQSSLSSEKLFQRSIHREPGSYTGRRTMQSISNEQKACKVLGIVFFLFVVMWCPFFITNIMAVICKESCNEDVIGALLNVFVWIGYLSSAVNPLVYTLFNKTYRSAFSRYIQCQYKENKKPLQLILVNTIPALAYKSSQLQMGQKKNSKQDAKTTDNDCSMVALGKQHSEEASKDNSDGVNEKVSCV
T3 sequence (P28222 whole entry): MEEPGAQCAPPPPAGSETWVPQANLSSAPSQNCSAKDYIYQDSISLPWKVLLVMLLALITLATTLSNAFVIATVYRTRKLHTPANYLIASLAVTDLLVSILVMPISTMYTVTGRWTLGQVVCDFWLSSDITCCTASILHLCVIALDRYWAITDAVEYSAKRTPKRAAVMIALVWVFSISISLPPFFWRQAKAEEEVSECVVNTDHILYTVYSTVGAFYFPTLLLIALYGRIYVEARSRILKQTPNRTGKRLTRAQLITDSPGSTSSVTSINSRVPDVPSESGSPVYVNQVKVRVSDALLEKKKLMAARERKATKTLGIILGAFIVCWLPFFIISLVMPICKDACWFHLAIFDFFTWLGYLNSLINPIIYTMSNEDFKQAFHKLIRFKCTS

For `CCN(CC)C(=O)[C@@H]1C=C2c3cccc4[nH]cc(c34)C[C@H]2N(Cc2cccc(C#N)c2)C1` [Compound 76, (6aR,9R)—N,N-diethyl-7-(3-cyanobenzyl)-4,6,6a,7,8,9-hexahydroindolo[4,3-fg]quinoline-9-carboxamide], the Emax at 5-HT2B receptor was found to be 0.93%; at 5-HT1A receptor it was 77%; at 5-HT1B receptor, 93.4%; on 5-HT2A receptor [5], 82.1%. In addition, the concentration giving a half-maximal response (EC50) on 5-HT2B receptor is above 10 µM; on 5-HT1A receptor, 25.4 µM; on 5-HT1B receptor, 1.49 µM; at 5-HT2A receptor [5], 6.62 µM. Besides, the figures for the microsomal CLint in “in vitro [1]”, in “in vitro [2]” and in the series “in vitro [3]” were 64.1 µL/min/mg, 576 µL/min/mg and 114 µL/min/mg, respectively. The half-life in “in vitro [1]” amounted to 21.6 min; in “in vitro [2]”, 2.4 min; in “in vitro [3]”, 12.1 min. The compound further came in with an inhibition constant (Ki) at 5-HT2A receptor [4] of 0.0985 µM.
With `CCN(CC)C(=O)[C@@H]1C=C2c3cccc4[nH]cc(c34)C[C@H]2N(Cc2ccccc2)C1` [Compound 82, (6aR,9R)-7-benzyl-N,N-diethyl-4,6,6a,7,8,9-hexahydroindolo[4,3-fg]quinoline-9-carboxamide], the Emax was 13.3% on 5-HT2B receptor; 27.8% at 5-HT1A receptor; 62.8% on 5-HT1B receptor; 26.1% at 5-HT2A receptor [6]; 61.4% on 5-HT2A receptor [5]. The half-maximal effective concentration (EC50) was above 10 µM on 5-HT2B receptor; 3.35 µM at 5-HT1A receptor; 0.992 µM on 5-HT1B receptor; 0.00173 µM on 5-HT2A receptor [6]; 0.422 µM on 5-HT2A receptor [5]. Moreover, the microsomal CLint in the series “in vitro [1]” was 106 µL/min/mg; in the series “in vitro [2]” it was 553 µL/min/mg; in the series “in vitro [3]” it was 190 µL/min/mg. Moreover, the results for the half-life in the series “in vitro [1]”, in “in vitro [2]” and in “in vitro [3]” were 13 min, 2.5 min and 7.3 min, respectively. Moreover, the Ki at 5-HT2A receptor [4] turned out to be 0.00194 µM.
In the case of `CCN(CC)C(=O)[C@@H]1C=C2c3cccc4[nH]cc(c34)C[C@H]2N(Cc2ccc(Cl)cc2)C1` [Compound 50, (6aR,9R)-7-(4-chlorobenzyl)-N,N-diethyl-4,6,6a,7,8,9-hexahydroindolo[4,3-fg]quinoline-9-carboxamide], the Emax was determined as 2.94% on 5-HT2B receptor; 8.23% at 5-HT1A receptor; 41.9% at 5-HT1B receptor; 41.2% on 5-HT2A receptor [6]; 88.2% at 5-HT2A receptor [5]. In addition, the EC50 on 5-HT2B receptor is above 10 µM; on 5-HT1A receptor, above 10 µM; at 5-HT1B receptor, above 10 µM; on 5-HT2A receptor [6] it was 0.0347 µM; at 5-HT2A receptor [5], 3.24 µM. In the series “in vitro [1]”, the microsomal CLint amounted to 65 µL/min/mg. Also, the half-life in “in vitro [1]” stood at 21.3 min. Also, the Ki on 5-HT2A receptor [4] amounted to 0.00415 µM.
As for `CCN(CC)C(=O)[C@@H]1C=C2c3cccc4[nH]cc(c34)C[C@H]2N(Cc2cocn2)C1` [Compound 73, (6aR,9R)—N,N-diethyl-7-(oxazol-4-ylmethyl)-4,6,6a,7,8,9-hexahydroindolo[4,3-fg]quinoline-9-carboxamide], the Emax on 5-HT2B receptor worked out at 60.9%; on 5-HT1A receptor, 78.7%; on 5-HT1B receptor, 73.6%; at 5-HT2A receptor [5], 92.1%. Further, the 50% effective concentration (EC50) at 5-HT2B receptor was 0.375 µM; at 5-HT1A receptor, 0.586 µM; at 5-HT1B receptor, 1.37 µM; at 5-HT2A receptor [5], 0.0476 µM. Moreover, the figures for the microsomal CLint in “in vitro [1]”, in “in vitro [2]” and in “in vitro [3]” were 45.6 µL/min/mg, 76.7 µL/min/mg and 51.8 µL/min/mg, respectively. In addition, the half-life is 30.4 min in “in vitro [1]”, 18.1 min in “in vitro [2]” and 26.8 min in “in vitro [3]”. For the same compound, the Ki at 5-HT2A receptor [4] amounted to 0.0082 µM.
Consider `CCN(CC)C(=O)[C@@H]1C=C2c3cccc4[nH]cc(c34)C[C@H]2N(Cc2ccon2)C1` [Compound 70, (6aR,9R)—N,N-diethyl-7-(isoxazol-3-ylmethyl)-4,6,6a,7,8,9-hexahydroindolo[4,3-fg]quinoline-9-carboxamide], for which the Emax at 5-HT2B receptor worked out at 34.4%; on 5-HT1A receptor, 58.6%; on 5-HT1B receptor it was 17.8%; on 5-HT2A receptor [5] it was 84.7%. The EC50 is 0.449 µM on 5-HT2B receptor, 62.3 µM on 5-HT1A receptor, above 10 µM at 5-HT1B receptor and 0.038 µM at 5-HT2A receptor [5]. Moreover, the figures for the microsomal CLint in the series “in vitro [1]”, in the series “in vitro [2]” and in the series “in vitro [3]” were 54.3 µL/min/mg, 154 µL/min/mg and 47.9 µL/min/mg, respectively. Moreover, the half-life came to 25.5 min in the series “in vitro [1]”, 9 min in the series “in vitro [2]” and 28.9 min in the series “in vitro [3]”. Besides, at 5-HT2A receptor [4], the Ki is 0.0136 µM.
Take `CCN(CC)C(=O)[C@@H]1C=C2c3cccc4[nH]cc(c34)C[C@H]2N(Cc2ccc(F)cc2)C1` [Compound 49, (6aR,9R)—N,N-diethyl-7-(4-fluorobenzyl)-4,6,6a,7,8,9-hexahydroindolo[4,3-fg]quinoline-9-carboxamide]: the Emax on 5-HT2B receptor is 3.58%; on 5-HT1A receptor, 14.3%; on 5-HT1B receptor, 37.9%; on 5-HT2A receptor [6], 39.4%; at 5-HT2A receptor [5], 92.5%. For the same compound, the half-maximal effective concentration (EC50) on 5-HT2B receptor is above 10 µM; at 5-HT1A receptor, above 10 µM; at 5-HT1B receptor, above 10 µM; on 5-HT2A receptor [6], 0.00768 µM; on 5-HT2A receptor [5] it was 1.59 µM. The microsomal CLint in the series “in vitro [1]” turned out to be 87.8 µL/min/mg. Besides, the half-life in “in vitro [1]” was 15.8 min. For the same compound, the affinity on 5-HT2A receptor [4], expressed as Ki, was 0.00126 µM.
Turning to `CCN(CC)C(=O)[C@@H]1C=C2c3cccc4[nH]cc(c34)C[C@H]2N(Cc2cccc(O)c2)C1` [Compound 62, (6aR,9R)—N,N-diethyl-7-(3-hydroxybenzyl)-4,6,6a,7,8,9-hexahydroindolo[4,3-fg]quinoline-9-carboxamide], the Emax came to 9.88% at 5-HT2B receptor; 22.7% at 5-HT1A receptor; 46.8% at 5-HT1B receptor; 58.4% on 5-HT2A receptor [6]; 81.5% on 5-HT2A receptor [5]. The EC50 is above 100 µM at 5-HT2B receptor; 12.6 µM on 5-HT1A receptor; above 10 µM at 5-HT1B receptor; 0.0109 µM at 5-HT2A receptor [6]; 0.907 µM at 5-HT2A receptor [5]. Moreover, the microsomal CLint in “in vitro [1]” turned out to be 134 µL/min/mg; in the series “in vitro [2]”, 244 µL/min/mg; in “in vitro [3]” it was 214 µL/min/mg. Further, the half-life came to 10.3 min in the series “in vitro [1]”, 5.7 min in the series “in vitro [2]” and 6.5 min in the series “in vitro [3]”. Besides, the Ki on 5-HT2A receptor [4] is 0.0069 µM.
